Data taken from ChEMBL document CHEMBL4049405, “Investigation on cellular uptake and pharmacodynamics of DOCK2-inhibitory peptides conjugated with cell-penetrating peptides” (Bioorg Med Chem, 2017).
Values belong to the compound of their own block, whether it stands above or below them. Activity calls are given as the source filed them. The calls are words filed in the database; no cut-off is given here. Positions of bridges follow the written chain, without caps; N, C: chain ends. Non-standard residues stand in square brackets, D forms with d. Residues, ends and D or L forms follow the SMILES beside them. *: point of attachment. X1 = O=C(OCCCS*)Oc1ccc2nc(C3=N[C@@H](C(=O)O)CS3)sc2c1; Nle = CCCC[C@H](N)C(=O)O

Legend:
[1] = tested on: Mino; experiment: (§1) Antimigratory activity against human Mino cells assessed as inhibition of S1P stimulated cell migration at 3.3 uM measured after 30 mins by Cell-titer Glo assay relative to control; assay type: functional
[2] = tested on: Mino; experiment: Antimigratory activity against human Mino cells assessed as inhibition of S1P stimulated cell migration at 1.1 uM measured after 30 mins by Cell-titer Glo assay; assay type: functional, cell-based
[3] = target: T1, Dedicator of cytokinesis protein 2 (Homo sapiens, UniProt Q92608); experiment: Inhibition of Rac1 binding to biotinylated DOCK2 (unknown origin) by ELISA
[4] = target: T1, Dedicator of cytokinesis protein 2; experiment: Inhibition of GST-fused Rac1 (unknown origin) binding to recombinant N-terminal trigger factor/C-terminal SBP-tagged DOCK2 DHR-2 binding domain (unknown origin) expressed in mammalian cells assessed as reduction in Rac GEF activity pretreated for 1 hr followed by GST-fused Rac1 addition after 1 hr by ELISA; assay type: cell-based
[5] = as §1; assay type: functional; settings: 0.5 h
[6] = (§2) Antimigratory activity against human Mino cells assessed as inhibition of S1P stimulated cell migration at 10 uM measured after 30 mins by Cell-titer Glo assay relative to control; assay type: functional; settings: 0.5 h
[7] = target: T1, Dedicator of cytokinesis protein 2; experiment: Inhibition of DOCK2 (unknown origin) GEF activity
[8] = target: T1, Dedicator of cytokinesis protein 2; experiment: Inhibition of Rac1 binding to DOCK2 (unknown origin) by ELISA
[9] = tested on: Mino; experiment: as §2; assay type: functional
[10] = Cytotoxicity against HEK293T cells assessed as cell viability at 50 uM by CellTiter-Glo assay relative to control; settings: human
[11] = in vitro; settings: human, HEK293T cells
Description: Cytotoxicity against HEK293T cells assessed as cell viability at 25 uM by CellTiter-Glo assay relative to control

[12] = Drug uptake in HEK293T cells expressing luciferase reporter gene at 50 uM measured every 3 mins for 60 mins by luminescence assay relative to 50 uM luciferin; assay type: ADME, cell-based; settings: human, hek-293t, 1 h
[13] = in vitro; settings: human, HEK293T cells; remark: listed apart in the source
Description: Cytotoxicity against HEK293T cells assessed as cell viability at 12.5 uM by CellTiter-Glo assay relative to control

[14] = in vitro; settings: human, HEK293T cells; remark: listed apart in the source
Description: Cytotoxicity against HEK293T cells assessed as cell viability at 6.3 uM by CellTiter-Glo assay relative to control

T1 sequence (Q92608 whole entry, the tested form may be a part): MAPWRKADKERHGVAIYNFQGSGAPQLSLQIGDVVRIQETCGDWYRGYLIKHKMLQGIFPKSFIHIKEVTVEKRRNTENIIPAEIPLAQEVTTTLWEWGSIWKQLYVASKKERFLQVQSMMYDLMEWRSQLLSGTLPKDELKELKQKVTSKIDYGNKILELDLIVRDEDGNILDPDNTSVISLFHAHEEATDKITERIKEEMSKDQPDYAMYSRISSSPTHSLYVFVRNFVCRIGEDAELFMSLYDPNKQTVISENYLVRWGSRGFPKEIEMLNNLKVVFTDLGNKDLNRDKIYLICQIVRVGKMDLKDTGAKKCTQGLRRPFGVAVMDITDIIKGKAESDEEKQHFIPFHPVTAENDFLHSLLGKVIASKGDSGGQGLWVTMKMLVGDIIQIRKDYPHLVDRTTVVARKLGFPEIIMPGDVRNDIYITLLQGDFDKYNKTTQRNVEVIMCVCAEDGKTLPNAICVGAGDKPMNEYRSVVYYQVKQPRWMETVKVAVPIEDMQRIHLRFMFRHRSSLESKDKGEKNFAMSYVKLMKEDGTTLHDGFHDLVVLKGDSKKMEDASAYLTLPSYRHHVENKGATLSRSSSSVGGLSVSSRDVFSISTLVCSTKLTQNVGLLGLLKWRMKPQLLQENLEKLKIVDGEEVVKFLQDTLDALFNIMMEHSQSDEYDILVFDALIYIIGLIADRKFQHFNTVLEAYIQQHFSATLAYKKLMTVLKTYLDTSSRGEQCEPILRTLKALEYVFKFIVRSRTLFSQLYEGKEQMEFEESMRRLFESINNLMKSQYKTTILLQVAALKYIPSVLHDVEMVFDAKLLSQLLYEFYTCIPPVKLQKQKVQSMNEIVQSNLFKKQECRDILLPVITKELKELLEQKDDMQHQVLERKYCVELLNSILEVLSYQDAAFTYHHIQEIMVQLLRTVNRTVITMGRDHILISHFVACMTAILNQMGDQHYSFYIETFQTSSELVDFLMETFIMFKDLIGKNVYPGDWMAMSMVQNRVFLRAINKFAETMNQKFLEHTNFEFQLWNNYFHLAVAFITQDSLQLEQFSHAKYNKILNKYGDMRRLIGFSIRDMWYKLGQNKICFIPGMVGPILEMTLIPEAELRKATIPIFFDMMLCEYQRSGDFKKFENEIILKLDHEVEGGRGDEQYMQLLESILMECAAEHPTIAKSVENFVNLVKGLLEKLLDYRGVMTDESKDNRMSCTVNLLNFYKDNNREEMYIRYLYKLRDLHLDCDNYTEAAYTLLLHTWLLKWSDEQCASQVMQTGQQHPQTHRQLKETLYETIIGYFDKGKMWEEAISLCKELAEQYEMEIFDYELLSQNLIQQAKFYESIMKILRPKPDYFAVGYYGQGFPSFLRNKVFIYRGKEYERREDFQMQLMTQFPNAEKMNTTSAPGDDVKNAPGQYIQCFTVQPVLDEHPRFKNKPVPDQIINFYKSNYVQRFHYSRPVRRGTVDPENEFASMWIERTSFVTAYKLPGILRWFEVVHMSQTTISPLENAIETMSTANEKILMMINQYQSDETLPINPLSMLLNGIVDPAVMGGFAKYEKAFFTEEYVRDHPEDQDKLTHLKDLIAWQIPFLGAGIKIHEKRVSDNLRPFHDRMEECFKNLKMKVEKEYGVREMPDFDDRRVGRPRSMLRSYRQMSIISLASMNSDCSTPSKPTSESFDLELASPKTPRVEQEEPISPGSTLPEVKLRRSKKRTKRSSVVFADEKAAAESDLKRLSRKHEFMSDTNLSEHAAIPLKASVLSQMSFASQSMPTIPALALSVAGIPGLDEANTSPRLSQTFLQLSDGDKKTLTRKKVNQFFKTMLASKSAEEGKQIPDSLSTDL

SMILES: CC(=O)N[C@H]1CSSC[C@@H](C(=O)N[C@@H](CCCNC(=N)N)C(=O)N[C@@H](CCCNC(=N)N)C(=O)N[C@@H](CCCNC(=N)N)C(=O)N[C@@H](C)C(=O)N[C@@H](CC(C)C)C(=O)N[C@@H](Cc2c[nH]c3ccccc23)C(=O)N[C@@H](CCCCN)C(=O)N[C@H](C(=O)N[C@@H](CC(C)C)C(=O)N[C@@H](CC(C)C)C(=O)N[C@@H](CCCCN)C(=O)N[C@@H](CCCCN)C(=O)N[C@H](C(=O)N[C@@H](CC(C)C)C(=O)N[C@@H](CCCCN)C(=O)N[C@@H](C)C(=O)N2CCC[C@H]2C(=O)N[C@@H](CCCCN)C(=O)N[C@@H](CCCCN)C(=O)N[C@@H](CCCCN)C(=O)N[C@@H](CCCNC(=N)N)C(=O)N[C@@H](CCCCN)C(=O)N[C@H](C(N)=O)C(C)C)C(C)C)[C@@H](C)O)NC(=O)[C@H](Cc2c[nH]c3ccccc23)NC(=O)[C@@H]2CCCN2C(=O)[C@H](Cc2ccc(O)cc2)NC(=O)CNC(=O)[C@H](Cc2cnc[nH]2)NC(=O)[C@H](Cc2ccc(O)cc2)NC(=O)[C@H](CCCCN)NC(=O)[C@H](C)NC(=O)[C@H](C(C)C)NC1=O (Ac-CVAKYHGYPWCRRRALWKTLLKKVLKAPKKKRKV-NH2; disulfide 1-11)
- inhibition [1]: Active
- inhibition [2]: Active
- IC50 [3]: 71 nM

SMILES: O=C1NN(c2ccccc2)C(=O)/C1=C/C=C/c1ccccc1Cl
- IC50 [4]: 22800 nM

SMILES: CC(=O)N[C@H]1CSSC[C@@H](C(=O)N[C@@H](CCCNC(=N)N)C(=O)N[C@@H](CCCNC(=N)N)C(=O)N[C@@H](CCCNC(=N)N)C(=O)N[C@H](C(=O)N[C@@H](CCCNC(=N)N)C(=O)N[C@H](C(=O)N[C@@H](CC(C)C)C(=O)N[C@@H](CCCCN)C(=O)N[C@@H](CCCNC(=N)N)C(=O)N[C@@H](Cc2c[nH]c3ccccc23)C(=O)N[C@@H](CCCCN)C(=O)N[C@@H](CC(C)C)C(=O)N[C@@H](Cc2ccccc2)C(N)=O)C(C)C)[C@@H](C)O)NC(=O)[C@H](Cc2c[nH]c3ccccc23)NC(=O)[C@@H]2CCCN2C(=O)[C@H](Cc2ccc(O)cc2)NC(=O)CNC(=O)[C@H](Cc2cnc[nH]2)NC(=O)[C@H](Cc2ccc(O)cc2)NC(=O)[C@H](CCCCN)NC(=O)[C@H](C)NC(=O)[C@H](C(C)C)NC1=O (Ac-CVAKYHGYPWCRRRTRVLKRWKLF-NH2; disulfide 1-11)
- inhibition at 3.3 µM [5]: > 89%
- inhibition [2]: Active
- IC50 [3]: 31 nM
- inhibition at 10 µM [6]: > 89%

SMILES: CC(=O)N[C@@H](CSSCCCOC(=O)Oc1ccc2nc(C3=N[C@@H](C(=O)O)CS3)sc2c1)C(=O)N[C@H]1CSSC[C@@H](C(=O)N[C@@H](CCCNC(=N)N)C(=O)N[C@@H](CCCNC(=N)N)C(=O)N[C@@H](CCCNC(=N)N)C(=O)N[C@@H](CCCNC(=N)N)C(=O)N[C@@H](CCCNC(=N)N)C(=O)N[C@@H](CCCNC(=N)N)C(=O)N[C@@H](CCCNC(=N)N)C(=O)N[C@@H](CCCNC(=N)N)C(N)=O)NC(=O)[C@H](Cc2c[nH]c3ccccc23)NC(=O)[C@@H]2CCCN2C(=O)[C@H](Cc2ccc(O)cc2)NC(=O)CNC(=O)[C@H](Cc2cnc[nH]2)NC(=O)[C@H](Cc2ccc(O)cc2)NC(=O)[C@H](CCCCN)NC(=O)[C@H](C)NC(=O)[C@H](C(C)C)NC1=O (Ac-C(X1)CVAKYHGYPWCRRRRRRRR-NH2; disulfide 2-12)
- viability at 50 µM [10]: 71.7%
- viability at 25 µM [11]: 99.7%
- fold change (FC) [12]: 61
- viability at 12.5 µM [13]: 104%
- viability at 6.3 µM [14]: 108%

Now from value to compound, other results behind:

- IC50 [3]: 95 nM
SMILES: CCCC[C@H](NC(=O)[C@H](CCCNC(=N)N)NC(=O)[C@H](CCCNC(=N)N)NC(=O)[C@H](CC(N)=O)NC(=O)[C@H](CCC(N)=O)NC(=O)[C@H](Cc1ccccc1)NC(=O)[C@H](Cc1c[nH]c2ccccc12)NC(=O)[C@@H](NC(=O)[C@H](CCCCN)NC(=O)[C@@H](NC(=O)[C@H](CCC(N)=O)NC(=O)[C@H](CCCNC(=N)N)NC(=O)[C@H](CCCNC(=N)N)NC(=O)[C@H](CCCNC(=N)N)NC(=O)[C@H](CCCNC(=N)N)NC(=O)[C@@H]1CSSC[C@H](NC(C)=O)C(=O)N[C@@H](C(C)C)C(=O)N[C@@H](C)C(=O)N[C@@H](CCCCN)C(=O)N[C@@H](Cc2ccc(O)cc2)C(=O)N[C@@H](Cc2cnc[nH]2)C(=O)NCC(=O)N[C@@H](Cc2ccc(O)cc2)C(=O)N2CCC[C@H]2C(=O)N[C@@H](Cc2c[nH]c3ccccc23)C(=O)N1)[C@@H](C)CC)[C@@H](C)CC)C(=O)N[C@@H](CCCCN)C(=O)N[C@@H](Cc1c[nH]c2ccccc12)C(=O)N[C@@H](CCCCN)C(=O)N[C@@H](CCCCN)C(N)=O (Ac-CVAKYHGYPWCRRRRQIKIWFQNRR[Nle]KWKK-NH2; disulfide 1-11)
- inhibition [1]: Active
- inhibition [2]: Active

- IC50 [7]: 35 nM
- IC50 [8]: 6 nM
SMILES: CC(C)C[C@H](N)C(=O)N[C@@H](CC(N)=O)C(=O)N[C@@H](CCCNC(=N)N)C(=O)N[C@H]1CSSC[C@@H](C(=O)N[C@@H](CCCNC(=N)N)C(=O)N[C@@H](CCCNC(=N)N)C(=O)N[C@@H](CCCNC(=N)N)C(=O)O)NC(=O)[C@H](Cc2c[nH]c3ccccc23)NC(=O)[C@@H]2CCCN2C(=O)[C@H](Cc2ccc(O)cc2)NC(=O)CNC(=O)[C@H](Cc2cnc[nH]2)NC(=O)[C@H](Cc2ccc(O)cc2)NC(=O)[C@H](CCCCN)NC(=O)[C@H](C)NC(=O)[C@H](C(C)C)NC1=O (H-LNRCVAKYHGYPWCRRR-OH; disulfide 4-14)

- IC50 [3]: 11 nM
SMILES: CC(=O)N[C@H]1CSSC[C@@H](C(=O)N[C@@H](CCCNC(=N)N)C(=O)N[C@@H](CCCNC(=N)N)C(=O)N[C@@H](CCCNC(=N)N)C(N)=O)NC(=O)[C@H](Cc2c[nH]c3ccccc23)NC(=O)[C@@H]2CCCN2C(=O)[C@H](Cc2ccc(O)cc2)NC(=O)CNC(=O)[C@H](Cc2cnc[nH]2)NC(=O)[C@H](Cc2ccc(O)cc2)NC(=O)[C@H](CCCCN)NC(=O)[C@H](C)NC(=O)[C@H](C(C)C)NC1=O (Ac-CVAKYHGYPWCRRR-NH2; disulfide 1-11)
- inhibition [2]: Active
- inhibition [9]: Active

- IC50 [3]: 8 nM
SMILES: CC(=O)N[C@H]1CSSC[C@@H](C(=O)N[C@@H](CCCNC(=N)N)C(=O)N[C@@H](CCCNC(=N)N)C(=O)N[C@@H](CCCNC(=N)N)C(=O)N[C@@H](CCCNC(=N)N)C(=O)N[C@@H](CCCNC(=N)N)C(=O)N[C@@H](CCCNC(=N)N)C(=O)N[C@@H](CCCNC(=N)N)C(=O)N[C@@H](CCCNC(=N)N)C(N)=O)NC(=O)[C@H](Cc2c[nH]c3ccccc23)NC(=O)[C@@H]2CCCN2C(=O)[C@H](Cc2ccc(O)cc2)NC(=O)CNC(=O)[C@H](Cc2cnc[nH]2)NC(=O)[C@H](Cc2ccc(O)cc2)NC(=O)[C@H](CCCCN)NC(=O)[C@H](C)NC(=O)[C@H](C(C)C)NC1=O (Ac-CVAKYHGYPWCRRRRRRRR-NH2; disulfide 1-11)
- inhibition at 3.3 µM [5]: > 89%
- inhibition [2]: Active
- inhibition at 10 µM [6]: > 89%
